Results published in patent publication US20260176269A1, “ANTICOAGULANT HEPARIN OLIGOSACCHARIDE PHENYL-LINKED DIMER, PREPARATION METHOD THEREFOR AND USE THEREOF” (SHANDONG UNIVERSTIY, priority 2022, published 2026).
pIC50: −log10 of the molar value.

What was measured:
[1] = in vivo pharmacokinetics after subcutaneous injection in rats; conditions: rat
Protocol: Both Fondaparinux and the phenyl-linked heparin hexasaccharide dimer I-1-1 were injected subcutaneously into Wister male rats weighing 200±20 g (n≥3) at a dose of 300 IU/kg. Blood samples were collected from the jugular vein of rats at 0, 0.5, 0.75, 1, 1.25, 1.5, 1.75, 2, 2.5, 3, 4, 8, 12 and 24 hours respectively (based on the actual blood collection time). After the blood samples were centrifuged at 5000 r/min for 15 minutes, the supernatant was taken to determine the anti-Factor Xa activity by the above method, and the residual concentrations of Fondaparinux and the phenyl-linked heparin hexasaccharide dimer I-1-1 in rats were calculated. The drug concentration vs. time curve was drawn.

Factor II a = test: anti-Factor IIa activity, chromogenic substrate method; format: biochemical; conditions: data not shown
Factor Xa [2] = test: neutralization of anti-Factor Xa activity by protamine sulfate, chromogenic substrate method; format: biochemical; conditions: different concentrations of protamine sulfate
Excerpt: Therefore, the phenyl-linked heparin hexasaccharide dimer I-1-1 prepared by the present disclosure is a novel heparin analog whose anticoagulant activity may be neutralized by protamine sulfate.

Factor Xa [3] = test: anti-Factor Xa activity, chromogenic substrate assay; format: biochemical
Factor Xa [4] = test: anti-Factor Xa titer against low molecular weight heparin standard curve, chromogenic substrate method; format: biochemical

Row | half-life ([1]; male, Wister, plasma, sc, 300 IU/kg) [h] | t1/2 ([1]; male, Wister, in vivo, sc) [h] | IC50 value of the anti-Factor Xa activity (Factor Xa [3]; mass concentration) [µg/mL] | pIC50 (Factor Xa [3]; molar concentration) | SMILES | in vivo half-life (comparison in words) ([1]; in vivo) | anti-Factor IIa activity (Factor II a) | neutralization of in vitro anti-Factor Xa activity by protamine sulfate (Factor Xa [2]) | titer (Factor Xa [4])
1 | 2.17 |  |  |  | CO[C@H]1O[C@H](COS(=O)(=O)O)[C@@H](O[C@@H]2O[C@@H](C(=O)O)[C@@H](O[C@H]3O[C@H](COS(=O)(=O)O)[C@@H](O[C@@H]4O[C@H](C(=O)O)[C@@H](O[C@H]5O[C@H](COS(=O)(=O)O)[C@@H](O)[C@H](O)[C@H]5NS(=O)(=O)O)[C@H](O)[C@H]4O)[C@H](OS(=O)(=O)O)[C@H]3NS(=O)(=O)O)[C@H](O)[C@H]2OS(=O)(=O)O)[C@H](O)[C@H]1NS(=O)(=O)O [Fondaparinux, reference compound] |  |  |  | 
2 |  | 2.269 | 0.02815 | 8.14 | O=C(O)C1OC(OC2C(COS(=O)(=O)O)OC(OC3C(C(=O)O)OC(OC4C(COS(=O)(=O)O)OC(OC5C(C(=O)O)OC(Oc6ccc(OC7OC(C(=O)O)C(OC8OC(COS(=O)(=O)O)C(OC9OC(C(=O)O)C(OC%10OC(COS(=O)(=O)O)C(OC%11OC(C(=O)O)C(OC%12OC(COS(=O)(=O)O)C(O)C(O)C%12NS(=O)(=O)O)C(O)C%11O)C(OS(=O)(=O)O)C%10NS(=O)(=O)O)C(O)C9OS(=O)(=O)O)C(O)C8NS(=O)(=O)O)C(O)C7O)cc6)C(O)C5O)C(NS(=O)(=O)O)C4O)C(OS(=O)(=O)O)C3O)C(NS(=O)(=O)O)C2OS(=O)(=O)O)C(O)C(O)C1OC1OC(COS(=O)(=O)O)C(O)C(O)C1NS(=O)(=O)O (centres unmarked) [Compound I-1-1] | comparable to that of commercially available Fondaparinux | no significant anti-Factor Ha activity | almost completely reversed | 1,121.5 IU/mg
